Tests used:
Assay type in all cases: cell-based
[1] = test system: spores of Gb stearothermophilus; experiment: Fluorescence intensity vs. time of spore suspension with dye, with or without nutrients (Example 1); details: Acridine Orange 6.6 μM, ex 485 nm, em 530 nm, 50° C.; for Fluorescence Intensity of Spore Suspension with Dye: no nutrients
Description: Spore suspensions of Gb. stearothermophilus (also known as Bacillus stearothermophilus) were prepared by known methods as described in Example 1 of U.S. Pat. No. 5,418,167 ([…] et al.). Modifications of these methods and alternative methods known to those skilled in the art may also be used for preparing these suspensions. Representative cell-permeant dyes from the following classes: green fluorescent nucleic acid stains, red fluorescent nucleic acid stains, and Acridine Orange were tested with spores of Gb stearothermophilus. Specifically, 100 microliters of the spore suspension described above were combined with 200 microlitres of a 1:5000 dilution of the dye with Sterile Water For Irrigation (Baxter, Deerfield, Ill.) or with nutrients glucose, fructose, and potassium chloride in water (1 mg/ml, 1 mg/ml, and 3.3 mgs/ml, respectively), 0.2 M valine, 0.04 M isoleucine, 0.2 M methionine, 4 mg/ml inosine, and 0.4 M alanine. The fluorescence intensity of each of the resulting suspensions was monitored at an incubation temperature of 50° C., using the following dyes at the concentrations and excitation and emission wavelengths indicated below: SYTO 24: 1.0 μM (micromolar); excitation at 485 nm, emission at 530 nm; Acridine Orange: 6.6 μM; excitation at 485 nm, emission at 530 nm; SYTO 64: 1.0 μM; excitation at 530 nm, emission at 620 nm. The dyes are available from Invitrogen, (Carlsbad, Calif.). Fluorescence was monitored in a Biotek FL600 fluorimeter or Biotek Synergy 4 plate reader (Biotek, Winooski, Vt.).

[2] = test system: Gb. stearothermophilus spores; experiment: Fluorescence with spores after dye medium was exposed to sterilization temperature, autoclaved vs not autoclaved (Example 2); details: ex 485/em 530 nm, 50° C.
Description: Dilutions of a Gb. stearothermophilus spore suspension described above were subjected to heat shock treatment at 80° C. for 10 min. The dilutions were prepared using Sterile Water For Irrigation (Baxter, Deerfield, Ill.) and tested at a final population of 1×10^6 and 0 spores. The spore dilutions (100 microlitres) were combined with 200 microlitres of medium, consisting of Acridine Orange and nutrients as described in Example 1, that had been subjected to a 15 min 121° C. (250° F.) vacuum assisted cycle in a AMSCO Scientific SG-120 Eagle/Century Series steam sterilizer (Steris, Mentor Ohio), and each of the resulting mixtures was added to a well of a plate. Un-autoclaved medium was used as a control. […] The experiment was performed with both heat shocked and non-heat shocked spores. A summary of the normalized data is listed below in Tables 2a-2c.

[3] = test system: Gb. stearothermophilus spores; experiment: Fluorescence with live and dead (sterilized) spores, dye and nutrient medium treated with the same sterilizing conditions (Example 3)
Description: A glass vial containing 1 mL of 1×E7 Gb. stearothermophilus spore suspension described above and a glass vial containing 1 mL of medium containing a cell-permeant fluorescent dye as described in Example 1 were placed in a sterilizer and run in a 15 min 121° C. (250° F.) vacuum assisted cycle in a AMSCO Scientific SG-120 Eagle/Century Series steam sterilizer (Steris, Mentor Ohio), and 100 microlitres of the resulting autoclaved spore suspensions and medium were subsequently tested. Un-autoclaved spore suspensions that were subjected to a heat shock treatment at 80° C. for 10 min were tested simultaneously as a control. Spore suspensions (100 microlitres) were combined with 200 microlitres of medium, consisting of Acridine orange dye and nutrients as described in Example 1, that was run through the same steam sterilization cycle as the spores, and each resulting mixture was added to a well of a plate. The plate was subsequently placed in a preheated plate reader (Synergy 4, BioTek, Winooski, Vt.) at 50° C. and incubated for 180 min, during which fluorescence intensity readings using excitation and emission wavelengths of 520 and 580, respectively were taken for at total of 19 readings.

CN(C)c1ccc2cc3ccc(N(C)C)cc3nc2c1 [Acridine Orange]
Fluorescence Intensity of Spore Suspension with Dye ([1]; 0 min): 2005 | Fluorescence Intensity of Spore Suspension with Dye ([1]; 10 min): 2665 | Fluorescence Intensity of Spore Suspension with Dye ([1]; 20 min): 4069 | Fluorescence Intensity of Spore Suspension with Dye ([1]; 30 min): 5655 | Fluorescence Intensity of Spore Suspension with Dye ([1]; 40 min): 7091 | Fluorescence Intensity of Spore Suspension with Dye and Nutrients ([1]; 0 min): 2687 | Fluorescence Intensity of Spore Suspension with Dye and Nutrients ([1]; 10 min): 2777 | Fluorescence Intensity of Spore Suspension with Dye and Nutrients ([1]; 20 min): 4241 | Fluorescence Intensity of Spore Suspension with Dye and Nutrients ([1]; 30 min): 7842 | Fluorescence Intensity of Spore Suspension with Dye and Nutrients ([1]; 40 min): 11708 | Fluorescence intensity (normalized) ([2]; Autoclaved (15 min 121° C.) dye + nutrient medium, heat shocked E6 germinating spores, 0 min): 0 | Fluorescence intensity (normalized) ([2]; Autoclaved (15 min 121° C.) dye + nutrient medium, heat shocked E6 germinating spores, 30 min): 6211.5 | Fluorescence intensity (normalized) ([2]; Autoclaved (15 min 121° C.) dye + nutrient medium, heat shocked E6 germinating spores, 60 min): 8652.5 | Fluorescence intensity (normalized) ([2]; Autoclaved (15 min 121° C.) dye + nutrient medium, heat shocked E6 germinating spores, 90 min): 9955.5 | Fluorescence intensity (normalized) ([2]; Autoclaved (15 min 121° C.) dye + nutrient medium, heat shocked E6 germinating spores, 120 min): 10376.5 | Fluorescence intensity (normalized) ([2]; Autoclaved (15 min 121° C.) dye + nutrient medium, heat shocked E6 germinating spores, 150 min): 10694.25 | Fluorescence intensity (normalized) ([2]; Autoclaved (15 min 121° C.) dye + nutrient medium, heat shocked E6 germinating spores, 180 min): 10803 | Fluorescence intensity (normalized) ([2]; Autoclaved (15 min 121° C.) dye + nutrient medium, heat shocked, 0 spores, 0 min): 0 | Fluorescence intensity (normalized) ([2]; Autoclaved (15 min 121° C.) dye + nutrient medium, heat shocked, 0 spores, 30 min): 522.25 | Fluorescence intensity (normalized) ([2]; Autoclaved (15 min 121° C.) dye + nutrient medium, heat shocked, 0 spores, 60 min): 588.75 | Fluorescence intensity (normalized) ([2]; Autoclaved (15 min 121° C.) dye + nutrient medium, heat shocked, 0 spores, 90 min): 779.75 | Fluorescence intensity (normalized) ([2]; Autoclaved (15 min 121° C.) dye + nutrient medium, heat shocked, 0 spores, 120 min): 870 | Fluorescence intensity (normalized) ([2]; Autoclaved (15 min 121° C.) dye + nutrient medium, heat shocked, 0 spores, 150 min): 886.5 | Fluorescence intensity (normalized) ([2]; Autoclaved (15 min 121° C.) dye + nutrient medium, heat shocked, 0 spores, 180 min): 960.5 | Fluorescence intensity (normalized) ([2]; Autoclaved (15 min 121° C.) dye + nutrient medium, non-heat shocked E6 germinating spores, 0 min): 0 | Fluorescence intensity (normalized) ([2]; Autoclaved (15 min 121° C.) dye + nutrient medium, non-heat shocked E6 germinating spores, 14 min): 609 | Fluorescence intensity (normalized) ([2]; Autoclaved (15 min 121° C.) dye + nutrient medium, non-heat shocked E6 germinating spores, 30 min): 2599 | Fluorescence intensity (normalized) ([2]; Autoclaved (15 min 121° C.) dye + nutrient medium, non-heat shocked E6 germinating spores, 44 min): 4753 | Fluorescence intensity (normalized) ([2]; Autoclaved (15 min 121° C.) dye + nutrient medium, non-heat shocked E6 germinating spores, 58 min): 6508 | Fluorescence intensity (normalized) ([2]; Autoclaved (15 min 121° C.) dye + nutrient medium, non-heat shocked, 0 spores, 0 min): 0 | Fluorescence intensity (normalized) ([2]; Autoclaved (15 min 121° C.) dye + nutrient medium, non-heat shocked, 0 spores, 14 min): −212 | Fluorescence intensity (normalized) ([2]; Autoclaved (15 min 121° C.) dye + nutrient medium, non-heat shocked, 0 spores, 30 min): −263 | Fluorescence intensity (normalized) ([2]; Autoclaved (15 min 121° C.) dye + nutrient medium, non-heat shocked, 0 spores, 44 min): −278 | Fluorescence intensity (normalized) ([2]; Autoclaved (15 min 121° C.) dye + nutrient medium, non-heat shocked, 0 spores, 58 min): −287 | Fluorescence intensity (normalized) ([2]; Not autoclaved dye + nutrient medium, heat shocked E6 germinating spores, 0 min): 0 | Fluorescence intensity (normalized) ([2]; Not autoclaved dye + nutrient medium, heat shocked E6 germinating spores, 30 min): 11623.75 | Fluorescence intensity (normalized) ([2]; Not autoclaved dye + nutrient medium, heat shocked E6 germinating spores, 60 min): 17121.25 | Fluorescence intensity (normalized) ([2]; Not autoclaved dye + nutrient medium, heat shocked E6 germinating spores, 90 min): 18928.25 | Fluorescence intensity (normalized) ([2]; Not autoclaved dye + nutrient medium, heat shocked E6 germinating spores, 120 min): 19653.75 | Fluorescence intensity (normalized) ([2]; Not autoclaved dye + nutrient medium, heat shocked E6 germinating spores, 150 min): 19884.5 | Fluorescence intensity (normalized) ([2]; Not autoclaved dye + nutrient medium, heat shocked E6 germinating spores, 180 min): 20008.25 | Fluorescence intensity (normalized) ([2]; Not autoclaved dye + nutrient medium, heat shocked, 0 spores, 0 min): 0 | Fluorescence intensity (normalized) ([2]; Not autoclaved dye + nutrient medium, heat shocked, 0 spores, 30 min): 813 | Fluorescence intensity (normalized) ([2]; Not autoclaved dye + nutrient medium, heat shocked, 0 spores, 60 min): 875.75 | Fluorescence intensity (normalized) ([2]; Not autoclaved dye + nutrient medium, heat shocked, 0 spores, 90 min): 996.25 | Fluorescence intensity (normalized) ([2]; Not autoclaved dye + nutrient medium, heat shocked, 0 spores, 120 min): 1099 | Fluorescence intensity (normalized) ([2]; Not autoclaved dye + nutrient medium, heat shocked, 0 spores, 150 min): 1114.5 | Fluorescence intensity (normalized) ([2]; Not autoclaved dye + nutrient medium, heat shocked, 0 spores, 180 min): 990.25 | Fluorescence intensity (normalized) ([2]; Not autoclaved dye + nutrient medium, non-heat shocked E6 germinating spores, 0 min): 00 | Fluorescence intensity (normalized) ([2]; Not autoclaved dye + nutrient medium, non-heat shocked E6 germinating spores, 14 min): 597 | Fluorescence intensity (normalized) ([2]; Not autoclaved dye + nutrient medium, non-heat shocked E6 germinating spores, 30 min): 2878 | Fluorescence intensity (normalized) ([2]; Not autoclaved dye + nutrient medium, non-heat shocked E6 germinating spores, 44 min): 5314 | Fluorescence intensity (normalized) ([2]; Not autoclaved dye + nutrient medium, non-heat shocked E6 germinating spores, 58 min): 7289 | Fluorescence intensity (normalized) ([2]; Not autoclaved dye + nutrient medium, non-heat shocked, 0 spores, 0 min): 0 | Fluorescence intensity (normalized) ([2]; Not autoclaved dye + nutrient medium, non-heat shocked, 0 spores, 14 min): −334 | Fluorescence intensity (normalized) ([2]; Not autoclaved dye + nutrient medium, non-heat shocked, 0 spores, 30 min): −456 | Fluorescence intensity (normalized) ([2]; Not autoclaved dye + nutrient medium, non-heat shocked, 0 spores, 44 min): −484 | Fluorescence intensity (normalized) ([2]; Not autoclaved dye + nutrient medium, non-heat shocked, 0 spores, 58 min): −476 | Fluorescence intensity (normalized) ([3]; Autoclaved (dead) Spores, E6, ex 520/em 580, 50° C., 0 min): 0 | Fluorescence intensity (normalized) ([3]; Autoclaved (dead) Spores, E6, ex 520/em 580, 50° C., 30 min): −1468.25 | Fluorescence intensity (normalized) ([3]; Autoclaved (dead) Spores, E6, ex 520/em 580, 50° C., 60 min): −103.5 | Fluorescence intensity (normalized) ([3]; Autoclaved (dead) Spores, E6, ex 520/em 580, 50° C., 90 min): −9.25 | Fluorescence intensity (normalized) ([3]; Autoclaved (dead) Spores, E6, ex 520/em 580, 50° C., 120 min): −49.25 | Fluorescence intensity (normalized) ([3]; Autoclaved (dead) Spores, E6, ex 520/em 580, 50° C., 180 min): −307 | Fluorescence intensity (normalized) ([3]; Autoclaved Spores, 0, ex 520/em 580, 50° C., 0 min): 0 | Fluorescence intensity (normalized) ([3]; Autoclaved Spores, 0, ex 520/em 580, 50° C., 30 min): 375.25 | Fluorescence intensity (normalized) ([3]; Autoclaved Spores, 0, ex 520/em 580, 50° C., 60 min): 1347.25 | Fluorescence intensity (normalized) ([3]; Autoclaved Spores, 0, ex 520/em 580, 50° C., 90 min): 1533.75 | Fluorescence intensity (normalized) ([3]; Autoclaved Spores, 0, ex 520/em 580, 50° C., 120 min): 1491.25 | Fluorescence intensity (normalized) ([3]; Autoclaved Spores, 0, ex 520/em 580, 50° C., 180 min): 1427.75 | Fluorescence intensity (normalized) ([3]; Live Spores (heat shocked), E6, autoclaved dye + nutrient medium, ex 520/em 580, 50° C., 0 min): 0 | Fluorescence intensity (normalized) ([3]; Live Spores (heat shocked), E6, autoclaved dye + nutrient medium, ex 520/em 580, 50° C., 30 min): 6211.5 | Fluorescence intensity (normalized) ([3]; Live Spores (heat shocked), E6, autoclaved dye + nutrient medium, ex 520/em 580, 50° C., 60 min): 8652.5 | Fluorescence intensity (normalized) ([3]; Live Spores (heat shocked), E6, autoclaved dye + nutrient medium, ex 520/em 580, 50° C., 90 min): 9955.5 | Fluorescence intensity (normalized) ([3]; Live Spores (heat shocked), E6, autoclaved dye + nutrient medium, ex 520/em 580, 50° C., 120 min): 10376.5 | Fluorescence intensity (normalized) ([3]; Live Spores (heat shocked), E6, autoclaved dye + nutrient medium, ex 520/em 580, 50° C., 180 min): 10694.25 | Fluorescence intensity (normalized) ([3]; Live Spores, 0, autoclaved dye + nutrient medium, ex 520/em 580, 50° C., 0 min): 0 | Fluorescence intensity (normalized) ([3]; Live Spores, 0, autoclaved dye + nutrient medium, ex 520/em 580, 50° C., 30 min): 522.25 | Fluorescence intensity (normalized) ([3]; Live Spores, 0, autoclaved dye + nutrient medium, ex 520/em 580, 50° C., 60 min): 588.75 | Fluorescence intensity (normalized) ([3]; Live Spores, 0, autoclaved dye + nutrient medium, ex 520/em 580, 50° C., 90 min): 779.75 | Fluorescence intensity (normalized) ([3]; Live Spores, 0, autoclaved dye + nutrient medium, ex 520/em 580, 50° C., 120 min): 870 | Fluorescence intensity (normalized) ([3]; Live Spores, 0, autoclaved dye + nutrient medium, ex 520/em 580, 50° C., 180 min): 886.5
